Measured values taken from PMC6631223, “Chain-Branched Polyhydroxylated Octahydro-1H-Indoles as Potential Leads against Lysosomal Storage Diseases” (Pharmaceuticals, 2019).
Marks after values point to notes of the source that are not given here.

Key:
Assay type in all cases: biochemical
[1] = target: T1, β-Glucosidase (bovine liver) (Bos taurus, UniProt F1MNT6); experiment: Glycosidase inhibition: β-glucosidase (bovine liver)
T1 sequence (F1MNT6 1-469): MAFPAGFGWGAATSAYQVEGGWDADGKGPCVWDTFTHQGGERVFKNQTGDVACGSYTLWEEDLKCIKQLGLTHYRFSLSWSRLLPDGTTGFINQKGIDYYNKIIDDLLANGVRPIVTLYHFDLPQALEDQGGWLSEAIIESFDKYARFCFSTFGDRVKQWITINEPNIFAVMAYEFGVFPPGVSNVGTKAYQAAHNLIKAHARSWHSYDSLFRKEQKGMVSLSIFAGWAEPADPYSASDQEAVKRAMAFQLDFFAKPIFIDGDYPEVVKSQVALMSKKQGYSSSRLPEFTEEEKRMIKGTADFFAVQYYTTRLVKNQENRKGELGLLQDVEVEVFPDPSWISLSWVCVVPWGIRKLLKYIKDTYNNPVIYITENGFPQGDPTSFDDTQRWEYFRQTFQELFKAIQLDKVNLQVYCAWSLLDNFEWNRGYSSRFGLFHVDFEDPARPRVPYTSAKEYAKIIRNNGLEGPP
Text: (§1) The enzymes α-glucosidase (from yeast, rice), β-glucosidase (from almonds, bovine liver), α-galactosidase (from coffee beans), β-galactosidase (from bovine liver), α-mannosidase (from jack beans), β-mannosidase (from snails), α-L-fucosidase (from bovine kidney), α-L-rhamnosidase (from Penicillium decumbens), β-glucuronidases (from Escherichia coli), α,α-trehalase (from porcine kidney), amyloglucosidase (from Aspergillus niger), p-nitrophenyl glycosides, and various disaccharides were purchased from Sigma-Aldrich Co. Brush border membranes were prepared from the rat small intestine according to the method of Kessler et al., and were assayed at pH 6.8 for rat intestinal maltase using maltose. For rat intestinal glucosidases and porcine kidney trehalase activities, the reaction mixture (0.2 mL) contained 25 mM substrate and the appropriate amount of enzyme, and the incubations were performed for 10 min at 37 °C. The reaction was stopped by heating at 100 °C for 3 min. […] The absorbance at 505 nm was measured to determine the amount of the released D-glucose. Other glycosidase activities were determined using an appropriate p-nitrophenyl glycoside as substrate at the optimum pH of each enzyme. […] The released p-nitrophenol was measured spectrometrically at 400 nm.

β-Glucosidase (almond) = experiment: Glycosidase inhibition: β-glucosidase (almond); details: 1000 μM
Text: (§2) The enzymes α-glucosidase (from yeast, rice), β-glucosidase (from almonds, bovine liver), α-galactosidase (from coffee beans), β-galactosidase (from bovine liver), α-mannosidase (from jack beans), β-mannosidase (from snails), α-L-fucosidase (from bovine kidney), α-L-rhamnosidase (from Penicillium decumbens), β-glucuronidases (from Escherichia coli), α,α-trehalase (from porcine kidney), amyloglucosidase (from Aspergillus niger), p-nitrophenyl glycosides, and various disaccharides were purchased from Sigma-Aldrich Co. Brush border membranes were prepared from the rat small intestine according to the method of Kessler et al., and were assayed at pH 6.8 for rat intestinal maltase using maltose. For rat intestinal glucosidases and porcine kidney trehalase activities, the reaction mixture (0.2 mL) contained 25 mM substrate and the appropriate amount of enzyme, and the incubations were performed for 10 min at 37 °C. The reaction was stopped by heating at 100 °C for 3 min. After centrifugation (600 g; 10 min), 0.035 mL of the resulting reaction mixture were added to 2.1 mL of the Glucose CII-test Wako (Wako Pure Chemical Ind., Osaka, Japan). The absorbance at 505 nm was measured to determine the amount of the released D-glucose. Other glycosidase activities were determined using an appropriate p-nitrophenyl glycoside as substrate at the optimum pH of each enzyme. The reaction mixture (0.2 mL) contained 2 mM of the substrate and the appropriate amount of enzyme. The reaction was stopped by adding 0.4 mL of 400 mM Na2CO3. The released p-nitrophenol was measured spectrometrically at 400 nm.

α-L-Rhamnosidase = α-L-Rhamnosidase (Penicillium decumbens, UniProt S7ZS15); experiment: Glycosidase inhibition: α-L-rhamnosidase (Penicillium decumbens)
Sequence of α-L-Rhamnosidase (S7ZS15 entry or part of it): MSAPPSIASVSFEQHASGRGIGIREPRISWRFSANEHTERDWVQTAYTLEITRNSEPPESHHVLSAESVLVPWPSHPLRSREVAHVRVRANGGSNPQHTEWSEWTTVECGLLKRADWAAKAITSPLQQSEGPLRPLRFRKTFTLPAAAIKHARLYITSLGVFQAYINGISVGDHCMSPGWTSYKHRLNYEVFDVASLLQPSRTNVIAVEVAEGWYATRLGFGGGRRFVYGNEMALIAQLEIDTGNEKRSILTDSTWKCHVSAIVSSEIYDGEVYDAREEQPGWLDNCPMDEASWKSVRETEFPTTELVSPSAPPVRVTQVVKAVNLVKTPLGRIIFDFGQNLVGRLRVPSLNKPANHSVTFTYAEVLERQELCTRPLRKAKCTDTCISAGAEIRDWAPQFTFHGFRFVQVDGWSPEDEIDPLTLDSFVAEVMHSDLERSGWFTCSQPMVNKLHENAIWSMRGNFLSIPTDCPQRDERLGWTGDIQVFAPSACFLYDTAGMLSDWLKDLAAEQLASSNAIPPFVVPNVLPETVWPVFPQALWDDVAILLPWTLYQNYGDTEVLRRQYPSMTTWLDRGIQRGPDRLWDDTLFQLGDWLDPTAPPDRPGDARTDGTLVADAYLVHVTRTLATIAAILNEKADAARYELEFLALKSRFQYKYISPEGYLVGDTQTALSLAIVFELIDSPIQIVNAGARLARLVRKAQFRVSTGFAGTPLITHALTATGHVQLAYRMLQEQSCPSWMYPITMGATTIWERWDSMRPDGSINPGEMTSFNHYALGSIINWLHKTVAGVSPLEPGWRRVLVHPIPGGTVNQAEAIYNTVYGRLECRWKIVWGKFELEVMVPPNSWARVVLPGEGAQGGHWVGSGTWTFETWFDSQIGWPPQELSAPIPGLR
Text: as §1

α-Glucosidase (rice) = target: T2, α-Glucosidase (rice) (Oryza sativa subsp. japonica, UniProt Q653V7); experiment: Glycosidase inhibition: α-glucosidase (rice); details: read-out: inhibition % at 1000 μM
T2 construct: purchased Sigma-Aldrich Co
T2 sequence (Q653V7 34-885): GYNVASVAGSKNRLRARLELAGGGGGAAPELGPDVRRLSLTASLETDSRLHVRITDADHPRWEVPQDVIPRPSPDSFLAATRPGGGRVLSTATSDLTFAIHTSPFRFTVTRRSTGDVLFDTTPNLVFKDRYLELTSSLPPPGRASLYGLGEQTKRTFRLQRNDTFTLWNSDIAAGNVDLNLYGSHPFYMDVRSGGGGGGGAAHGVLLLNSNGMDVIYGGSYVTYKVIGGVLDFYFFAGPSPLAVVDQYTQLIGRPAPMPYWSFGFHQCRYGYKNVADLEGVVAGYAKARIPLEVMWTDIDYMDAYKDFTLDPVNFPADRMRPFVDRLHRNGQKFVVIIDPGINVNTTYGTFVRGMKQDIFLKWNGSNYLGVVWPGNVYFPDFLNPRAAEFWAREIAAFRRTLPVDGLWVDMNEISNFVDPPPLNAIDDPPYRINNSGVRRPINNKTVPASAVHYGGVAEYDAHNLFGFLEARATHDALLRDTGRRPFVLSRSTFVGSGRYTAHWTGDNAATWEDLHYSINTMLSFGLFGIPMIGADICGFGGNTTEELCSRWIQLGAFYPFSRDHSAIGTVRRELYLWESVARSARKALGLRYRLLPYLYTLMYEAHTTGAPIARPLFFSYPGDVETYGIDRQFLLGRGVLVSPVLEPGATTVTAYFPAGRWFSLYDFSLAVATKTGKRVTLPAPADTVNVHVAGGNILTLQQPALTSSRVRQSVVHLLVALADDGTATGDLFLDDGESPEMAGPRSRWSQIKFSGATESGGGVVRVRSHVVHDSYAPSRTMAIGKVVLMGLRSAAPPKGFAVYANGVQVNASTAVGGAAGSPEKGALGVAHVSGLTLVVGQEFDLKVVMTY
Text: as §2

β-Mannosidase (snail) = experiment: Glycosidase inhibition: β-mannosidase (snail); details: 1000 μM
Text: as §2

Amyloglucosidase = target: T3, Amyloglucosidase (Aspergillus niger, UniProt P69328); experiment: Glycosidase inhibition: amyloglucosidase (Aspergillus niger); details: amyloglucosidase, Aspergillus niger; 1000 μM
T3 construct: purchased Sigma-Aldrich Co
T3 sequence (P69328 25-640): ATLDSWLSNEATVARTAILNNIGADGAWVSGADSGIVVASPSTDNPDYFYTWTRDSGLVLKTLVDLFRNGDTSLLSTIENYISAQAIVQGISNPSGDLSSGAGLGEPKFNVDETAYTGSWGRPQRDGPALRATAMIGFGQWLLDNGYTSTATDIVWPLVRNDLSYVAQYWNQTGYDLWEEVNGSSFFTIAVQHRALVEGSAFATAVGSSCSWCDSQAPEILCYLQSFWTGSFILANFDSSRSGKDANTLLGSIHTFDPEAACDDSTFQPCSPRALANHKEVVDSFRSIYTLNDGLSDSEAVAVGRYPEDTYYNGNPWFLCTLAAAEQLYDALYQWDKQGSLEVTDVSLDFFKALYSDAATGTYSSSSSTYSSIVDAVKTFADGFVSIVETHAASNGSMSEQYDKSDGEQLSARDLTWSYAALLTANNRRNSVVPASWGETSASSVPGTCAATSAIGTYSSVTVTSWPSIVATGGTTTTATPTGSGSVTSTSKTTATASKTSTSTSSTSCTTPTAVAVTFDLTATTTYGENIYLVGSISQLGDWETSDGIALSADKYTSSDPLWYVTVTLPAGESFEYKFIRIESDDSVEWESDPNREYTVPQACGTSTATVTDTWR
Text: as §2

[2] = target: T4, Lactase (β-Galactosidase) (Rattus norvegicus, UniProt Q02401); experiment: Glycosidase inhibition: lactase; details: read-out: inhibition % at 1000 μM
T4 construct: Brush border membranes were prepared from the rat small intestine; from tissue; host or cells: rat small intestine brush border membranes (inferred)
T4 sequence (Q02401 868-1928): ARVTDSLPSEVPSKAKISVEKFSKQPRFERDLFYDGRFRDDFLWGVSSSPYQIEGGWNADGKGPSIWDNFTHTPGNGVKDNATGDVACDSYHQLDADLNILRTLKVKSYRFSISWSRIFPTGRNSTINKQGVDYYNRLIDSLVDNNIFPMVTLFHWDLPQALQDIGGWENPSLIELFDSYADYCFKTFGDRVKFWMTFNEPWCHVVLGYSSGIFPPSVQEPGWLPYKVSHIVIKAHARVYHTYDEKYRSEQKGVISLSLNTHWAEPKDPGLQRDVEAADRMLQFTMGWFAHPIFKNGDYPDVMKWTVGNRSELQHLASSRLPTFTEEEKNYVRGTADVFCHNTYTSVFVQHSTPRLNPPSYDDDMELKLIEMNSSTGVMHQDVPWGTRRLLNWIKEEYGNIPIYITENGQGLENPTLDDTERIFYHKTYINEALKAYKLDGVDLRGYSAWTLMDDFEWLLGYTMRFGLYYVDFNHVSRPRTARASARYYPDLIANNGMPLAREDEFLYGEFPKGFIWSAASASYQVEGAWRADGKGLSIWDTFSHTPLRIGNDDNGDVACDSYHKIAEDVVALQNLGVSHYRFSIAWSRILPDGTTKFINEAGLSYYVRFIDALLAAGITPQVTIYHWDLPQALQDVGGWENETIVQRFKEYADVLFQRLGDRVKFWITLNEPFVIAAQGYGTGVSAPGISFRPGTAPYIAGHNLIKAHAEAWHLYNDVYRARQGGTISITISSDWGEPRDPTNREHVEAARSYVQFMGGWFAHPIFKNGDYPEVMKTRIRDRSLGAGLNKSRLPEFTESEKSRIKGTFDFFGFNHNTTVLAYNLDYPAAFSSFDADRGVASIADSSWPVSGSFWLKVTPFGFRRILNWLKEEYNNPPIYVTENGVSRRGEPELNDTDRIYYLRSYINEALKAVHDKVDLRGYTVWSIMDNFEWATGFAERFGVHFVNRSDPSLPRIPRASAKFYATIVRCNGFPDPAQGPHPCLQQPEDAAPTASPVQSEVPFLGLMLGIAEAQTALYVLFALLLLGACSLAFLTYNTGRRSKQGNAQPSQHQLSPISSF
Text: as §2

**Q.** Which results are given for `CC[C@@H]1CN[C@H]2C[C@@H](O)[C@H](O)[C@@H](O)[C@H]12` [Compound 10, (3S,3aR,4S,5S,6R,7aS)-3-Ethyloctahydro-1H-indole-4,5,6-triol]?
**A.** inhibition at 1000 µM [1]: 0%; inhibition % at 1000 μM (β-Glucosidase (almond)): 12% ^a; inhibition at 1000 µM (α-L-Rhamnosidase): 0%; inhibition at 1000 µM (α-Glucosidase (rice)): 0%; inhibition % at 1000 μM (β-Mannosidase (snail)): 0% ^a; inhibition at 1000 µM (Amyloglucosidase): 0%; inhibition at 1000 µM [2]: 0.6%

**Q.** What does the source list for `CC[C@H]1CN[C@H]2C[C@@H](O)[C@H](O)[C@@H](O)[C@H]12` [Compound 13, (3R,3aR,4S,5S,6R,7aS)-3-ethyloctahydro-1H-indole-4,5,6-triol]?
**A.** inhibition at 1000 µM [1]: 21.7%; inhibition % at 1000 μM (β-Glucosidase (almond)): 5% ^a; inhibition at 1000 µM (α-L-Rhamnosidase): 0%; inhibition at 1000 µM (α-Glucosidase (rice)): 0%; inhibition % at 1000 μM (β-Mannosidase (snail)): 2.3% ^a; inhibition at 1000 µM (Amyloglucosidase): 0%; inhibition at 1000 µM [2]: 7.4%
